Assay results: ChEMBL document CHEMBL1201862, “PubChem BioAssay data set” (2004)
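Dose response: 5 concentrations. Exposure: 48 h. Format: 96-well plates. Endpoint: linear interpolation; highest concentration if not reached. GI50 marks 50% less growth.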 Activity calls are given as the source filed them. Rule as the data show it: active = GI50 up to about 1.1 µM and inactive = higher.

Legend:
Test in all cases: inhibition of tumour cell growth, NCI panel, 48 h
CCRF-CEM = system: CCRF-CEM
HL-60 = system: HL-60
SR = system: SR
M14 = system: M14
SK-MEL-5 = system: SK-MEL-5
SK-MEL-2 = system: SK-MEL-2
HT-29 = system: HT-29
SF-295 = system: SF-295
SF-539 = system: SF-539
HCC 2998 = system: HCC 2998
Malme-3M = system: Malme-3M
TK-10 = system: TK-10
LOX IMVI = system: LOX IMVI
UO-31 = system: UO-31
SNB-75 = system: SNB-75
ACHN = system: ACHN
786-0 = system: 786-0
UACC-62 = system: UACC-62
CAKI-1 = system: CAKI-1
OVCAR-4 = system: OVCAR-4

| Structure (SMILES) | GI50 (CCRF-CEM) | GI50 (HL-60) | GI50 (SR) | GI50 (M14) | GI50 (SK-MEL-5) | GI50 (SK-MEL-2) | GI50 (HT-29) | GI50 (SF-295) | GI50 (SF-539) | GI50 (HCC 2998) | GI50 (Malme-3M) | GI50 (TK-10) | GI50 (LOX IMVI) | GI50 (UO-31) | GI50 (SNB-75) | GI50 (ACHN) | GI50 (786-0) | GI50 (UACC-62) | GI50 (CAKI-1) | GI50 (OVCAR-4) |
| --- | --- | --- | --- | --- | --- | --- | --- | --- | --- | --- | --- | --- | --- | --- | --- | --- | --- | --- | --- | --- |
| COc1cc([C@@H]2c3cc4c(cc3[C@@H](Nc3ccc(Cl)cc3C(=O)c3ccccc3Cl)[C@H]3COC(=O)[C@H]23)OCO4)cc(OC)c1OC | 0.101 µM (active) | 0.0695 µM (active) | 0.0713 µM (active) | 0.303 µM (active) | 0.102 µM (active) | 0.953 µM (active) | 0.09 µM (active) | 0.121 µM (active) | 0.076 µM (active) | 0.373 µM (active) | 0.143 µM (active) | 39.7 µM (inactive) | 0.245 µM (active) | 0.344 µM (active) | 0.188 µM (active) | 0.125 µM (active) | 0.261 µM (active) | 0.118 µM (active) | 0.152 µM (active) | > 45.8 µM (inactive) |
| CC(CO)(CO)N1C(=O)C2C3C=CC(C3)C2C1=O (stereo not given) | > 100 µM (inactive) | > 100 µM (inactive) | > 100 µM (inactive) | > 100 µM (inactive) | > 100 µM (inactive) | > 100 µM (inactive) | > 100 µM (inactive) | > 100 µM (inactive) | > 100 µM (inactive) | > 100 µM (inactive) | > 100 µM (inactive) | > 100 µM (inactive) | > 100 µM (inactive) | > 100 µM (inactive) | > 100 µM (inactive) | > 100 µM (inactive) | > 100 µM (inactive) | > 100 µM (inactive) | > 100 µM (inactive) | > 100 µM (inactive) |
| CCn1c(SCC(=O)N/N=C/c2ccccc2)nc2ccccc2c1=O | 9.89 µM (inactive) | 4.8 µM (inactive) | 0.478 µM (active) | 7.16 µM (inactive) | 7.94 µM (inactive) | 11.7 µM (inactive) | 4.06 µM (inactive) | 4.7 µM (inactive) | 10.4 µM (inactive) | 5.22 µM (inactive) | 12.5 µM (inactive) | > 55.1 µM (inactive) | 6.68 µM (inactive) | 29.9 µM (inactive) | 12.8 µM (inactive) | 36 µM (inactive) | 7.66 µM (inactive) | 5.52 µM (inactive) | 9.08 µM (inactive) | 14.1 µM (inactive) |
| COc1ccc2cc(CN3CCC(C4CCN(Cc5ccc6cc(OC)ccc6c5)CC4)CC3)ccc2c1 | 2.16 µM (inactive) | 2.33 µM (inactive) | 1.24 µM (inactive) | 2.33 µM (inactive) | 1.66 µM (inactive) | 4.44 µM (inactive) | 2.2 µM (inactive) | 2.99 µM (inactive) | 3.19 µM (inactive) | 0.18 µM (active) | 2.17 µM (inactive) | 3.25 µM (inactive) | 2.14 µM (inactive) | 3.14 µM (inactive) | 4.45 µM (inactive) | 7.35 µM (inactive) | 2.06 µM (inactive) | 1.97 µM (inactive) | 2.73 µM (inactive) | 4.42 µM (inactive) |
| COc1ccc2c(c1)c(=O)c1ccccc1n2/C=C/C(=O)O | > 48.4 µM (inactive) | > 46.8 µM (inactive) | > 41.7 µM (inactive) | > 100 µM (inactive) | > 100 µM (inactive) | > 100 µM (inactive) | > 74.8 µM (inactive) | > 100 µM (inactive) | > 100 µM (inactive) | > 100 µM (inactive) | > 100 µM (inactive) | > 100 µM (inactive) | > 46.9 µM (inactive) | > 100 µM (inactive) | > 100 µM (inactive) | > 100 µM (inactive) | > 100 µM (inactive) | > 100 µM (inactive) | > 100 µM (inactive) | > 100 µM (inactive) |
